Source: patent US12435061B2 (priority 2020, dated 2025)
Read-outs that look alike come from different tables or passages of the source.

Legend:
[1] = set-up: species or system mice; conditions: mouse, in vivo, po
Method: At the beginning of the study, 3 mice were weight before compound treatment. Group of 3 mice received an increasing dose of KM-023 every 24 hours 1 mg/kg, 10 mg/kg, 30 mg/kg, 100 mg/kg, 500 mg/kg once daily, in a volume of 0.2 ml, administered orally. The mice were weighed daily before treatment.
At the end of the experiment, the mice were sacrificed with CO2.

[2] = test system: SLIGRL-NH2 (PAR2 agonist peptide) induced itching in mice; test: Efficacy of oral KM-023 in SLIGRL-NH2 itching mouse model; type: in vivo; conditions: for Decrease of number of scratches: 30 min before SLIGRL induction, 30 minutes post induction
Excerpt: The aim of this study is to evaluate the efficacy of anti-itching activity of KM-023 in SLIGRL-NH2 (SEQ ID NO: 1) mouse itching model.
Proteinase-activated receptors (PAR) are a group of G-protein coupled receptors which are activated by cleavage of their terminal sequence by serine proteinases. […] Thus, the administration of the murine PAR2 agonist peptide, SLIGRL-NH2 (SEQ ID NO: 1), is an known and acceptable model to assess anti-pruritic compounds in mice.
32 mice in good health status and corresponding to the specifications details above were included in the in vivo phase.
The animals were weighed before treatment. Induction of itching was performed on animals by intradermal administration of SLIGRL-NH2 (SEQ ID NO: 1) peptide in neck (volume about 20 μL).
Oral route was performed by oral gavage using plastic probe 30 min before induction with SLIGRL-NH2 (SEQ ID NO: 1) peptide.
Animals were placed in plexiglass red walls observation devices (for simultaneous observations of 4 mice). Red walls permitted observations of animals by the operator without the possibility for animals to see the operator. Animals were placed in observation cages before induction for 20 to 30 minutes.
Intradermal injections of SLIGRL (SEQ ID NO: 1) was performed on vigil animals in shaved neck and video recording was initiated immediately after injection for a duration of 30 minutes.
Manual image analysis was performed on recorded movies.
Scratching/itching bouts were counted on 6 time periods of 5 minutes (total of 30 min for each mouse).
The scratches were counted at predefined time intervals of 5 minutes post induction and 30 minutes post induction.

[3] = test system: SLIGRL-NH2 itching mouse model; test: SLIGRL-NH2 itching mouse model (Example 17); type: in vivo; conditions: pre-treatment with either dose of oral KM-023
[4] = rat, in vivo
Excerpt: The rats per group for either skin or CSF sample collection contains 9 rats.
Animals were allocated randomly into the following treatment groups.
Group 1: Control—2 untreated, naïve animals for the collection of blood, skin, and CSF at the point of euthanasia.
The same 3 rats were allocated to each alternating time point of bleeding.
Samples of plasma, skin and CSF were sent to Swiss BioQuant AG, Reinach, Switzerland for further analysis.
The extravascular model was used for oral dosing. Sparse sampling option was used for plasma concentration.
The following pharmacokinetic parameters were estimated from the plasma, skin and CSF concentration versus time curve:
tmax Time to reach the maximum plasma concentration read directly from the individual plasma concentration-time curve.
Cmax Maximum plasma concentration read directly from the individual plasma concentration-time curve.
Cmax/doseCmax corrected for dose.
AUC0-t Area under the plasma concentration-time curve from time point zero to last measurable concentration. AUC0-t was calculated according to the “linear up log down” trapezoidal rule.
AUC0-8 h Area under the plasma concentration-time curve from time point zero to time point 8 h after dosing. AUC0-8 h was calculated according to the “linear up log down” trapezoidal rule.
AUC0-8 h/dose AUC0-8 h corrected for dose

[5] = minipig, in vivo
Method: To assess PK profile of escalating doses of KM-023 administered via PO and IV routes. Animal care was carried out as described above. Animals were observed daily throughout the study period.
PK samples were obtained in the following time points:
On Day 0 and Day 1—time 0, 5 min post injection, 30 min post injection, 1 h post injection, 2 h post injection, 6 h post injection, 24 h post injection (on the following day)
On Day 2, 5 min post injection, 30 min post injection, 1 h post injection, 2 h post injection, 6 h post injection
Plasma samples for PK analysis have been send to Swiss BioQuant AG, Switzerland for further processing.
Methodology used for the detection of KM-023 in minipigs plasma is described in above. In both animals dosed with test item, exposure to KM-023 was detected.

For `Cc1nc(C(=O)N2CCC(c3ccc(-c4ccccc4C4CC4)cc3CO)C2)ccc1O` (centres unmarked) [KM-023], the “Maximal Feasible Dose (MFD)” value [1] was 500 mg/kg, the “Decrease of number of scratches” value ([2]; oral KM-023 1 mg/kg group) was 56.25% and the “Decrease of number of scratches” value ([2]; oral KM-023 10 mg/kg group) was 68.8%. The Anti-itching effect ([2]; oral pretreatment, SLIGRL induced scratch behaviour) was “anti-pruritic activity”, the “number of scratches observed 30 minutes post induction” value [3] was “decrease the number of scratches” and the “Dose proportionality of plasma AUC0-8 h” value [4] was “roughly more than dose proportional manner”. The “BBB crossing / CNS entry” value ([4]; po) was “does not cross BBB”, the “Distribution in CSF” value ([4]; po) was “did not distribute well in CSF” and the Distribution in skin ([4]; po) was “distributed well in skin”. The Systemic absorption ([4]; po) was “acceptable systemic absorption”, the tmax in plasma ([4]; po, 20 mg/kg) was 15 min and the “Exposure ratio CSF/plasma of AUC0-8 h” value ([4]; po, 60 mg/kg) was 0.0150-0.0162. The “Exposure ratio skin/plasma of AUC0-8 h” value ([4]; po, 60 mg/kg) was 0.437-0.816, the tmax ([4]; po, 60 mg/kg) was 0.250 and the “tmax in CSF” value ([4]; po, 60 mg/kg) was 15 min. For the same compound, the tmax in plasma ([4]; po, 60 mg/kg) was 30 min, the tmax in skin ([4]; po, 60 mg/kg) was 15 min to 1-hour and the “KM-023 concentrations at 24 h post-dose” value [5] was “above 0.300 ng/mL”. The abnormal clinical signs [5] was “No abnormal clinical signs were observed”, the “bioavailability of the KM-023 formulation” value [5] was 0.2-0.8% and the blood exposure [5] was “dose dependent blood exposure”. For the same compound, the tmax [5] was 49.8 min, the Half-time ([5]; iv) was 3.3 to 4.2 h and the “apparent maximum concentration time (tmax)” value ([5]; iv) was 5 min. The AUC0-8 h ([5]; iv, 1 mg/kg) was 314 ng·h/mL, the AUC0-h ([5]; iv, 1 mg/kg) was 320 ng·h/mL and the “AUC0-t/dose (lower part of table, beside AUC0-h)” value ([5]; iv, 1 mg/kg) was 320 (h * ng/mL)/(mg/kg). For the same compound, the “AUC0-t/dose (upper part of table, beside AUC0-8 h)” value ([5]; iv, 1 mg/kg) was 314 (h * ng/mL)/(mg/kg), the C0 ([5]; iv, 1 mg/kg) was 422 ng/mL and the Vz/F ([5]; iv, 1 mg/kg) was 19.1 L/kg. The AUC0-8 h ([5]; iv, 5 mg/kg) was 1300 ng·h/mL, the AUC0-h ([5]; iv, 5 mg/kg) was 1300 ng·h/mL and the “AUC0-t/dose (lower part of table, beside AUC0-h)” value ([5]; iv, 5 mg/kg) was 261 (h * ng/mL)/(mg/kg). For the same compound, the “AUC0-t/dose (upper part of table, beside AUC0-8 h)” value ([5]; iv, 5 mg/kg) was 260 (h * ng/mL)/(mg/kg), the C0 ([5]; iv, 5 mg/kg) was 2340 ng/mL and the Vz/F ([5]; iv, 5 mg/kg) was 18.2 L/kg. For the same compound, the AUC0-8 h ([5]; iv, 10 mg/kg) was 2800 ng·h/mL, the AUC0-h ([5]; iv, 10 mg/kg) was 2910 ng·h/mL and the “AUC0-t/dose (lower part of table, beside AUC0-h)” value ([5]; iv, 10 mg/kg) was 291 (h * ng/mL)/(mg/kg). For the same compound, the “AUC0-t/dose (upper part of table, beside AUC0-8 h)” value ([5]; iv, 10 mg/kg) was 280 (h * ng/mL)/(mg/kg), the C0 ([5]; iv, 10 mg/kg) was 6880 ng/mL and the “time of maximum concentration (tmax)” value ([5]; po) was 5 to 30 min. For the same compound, the AUC0-24 h ([5]; po, 1 mg/kg) was 0.442 ng·h/mL, the AUC0-t/dose ([5]; po, 1 mg/kg) was 0.442 kg·ng·h/mL/mg and the “AUC0-∞” value ([5]; po, 1 mg/kg) was 0.596 ng·h/mL. The AUC0-24 h ([5]; po, 5 mg/kg) was 1.31 ng·h/mL, the AUC0-t/dose ([5]; po, 5 mg/kg) was 0.262 kg·ng·h/mL/mg and the “AUC0-∞” value ([5]; po, 5 mg/kg) was 2.01 ng·h/mL. The AUC0-24 h ([5]; po, 10 mg/kg) was 23.2 ng·h/mL, the AUC0-t ([5]; po, 10 mg/kg) was 31.2 ng·h/mL and the AUC0-t/dose ([5]; po, 10 mg/kg) was 2.32 kg·ng·h/mL/mg. For the same compound, the “AUC0-∞” value ([5]; po, 10 mg/kg) was 23.2 ng·h/mL and the “AUC0-∞/dose” value ([5]; po, 10 mg/kg) was 3.12 kg·ng·h/mL/mg.
